14 compounds from patent US20100216799A1, “PHTHALAZINE AND PYRIDO[3,4-D]PYRIDAZINE COMPOUNDS AS H1 RECEPTOR ANTAGONISTS” (Glaxo Group Limited, priority 2007, published 2010) can be followed below.

Common to all, as to type: cell-based
Experiment [1] deals with T1, human H1 receptor (Homo sapiens, UniProt P35367).
T1 construct: expressed in transfected cells
Nature of the experiment: Histamine H1 functional antagonist assay (FLIPR): determination of antagonist pA2. The note with it: CHO cells expressing H1 receptor, shift of histamine concentration response curve. How it is done:
The human H1 receptor is cloned using known procedures described in the literature [Biochem. Biophys. Res. Commun., 201(2):894 (1994)]. Chinese hamster ovary (CHO) cells stably expressing the human H1 receptor are generated according to known procedures described in the literature [Br. J. Pharmacol., 117(6):1071 (1996)]. The histamine H1 receptor expressing CHO cells are seeded into non-coated black-walled clear bottom 96-well tissue culture plates as described above. Following overnight culture, growth medium is removed from each well, washed with 200 μl PBS and is replaced with 50 μl loading dye (250 μM Brilliant Black, 1 μM Fluo-4 diluted in Tyrodes buffer+probenecid (145 mM NaCl, 2.5 mM KCl, 10 mM HEPES, 10 mM D-glucose, 1.2 mM MgCl2, 1.5 mM CaCl2, 2.5 mM probenecid, pH adjusted to 7.40 with NaOH 1.0 M)). Cells are incubated for 45 min at 37° C. The loading buffer is removed and the cells are washed as above, and 90 μl of Tyrodes buffer+probenecid is added to each well. 10 μl of test compound, diluted to the required concentration in Tyrodes buffer+probenecid (or 10 μl Tyrodes buffer+probenecid as a control) is added to each well and the plate is incubated for 30 min at 37° C., 5% CO2. The plates are then placed into a FLIPR™ (Molecular Devices, UK) to monitor cell fluorescence (λex=488 nm, λEM=540 nm) in the manner described in Sullivan et al., (In: Lambert DG (ed.), Calcium Signaling Protocols, New Jersey: Humana Press, 1999, 125-136) before and after the addition of 50 μl histamine over a concentration range of 1 mM-0.1 nM. The resultant concentration response curves are analysed by non-linear regression using a standard four parameter logistic equation to determine the histamine EC50, the concentration of histamine required to produce a response of 50% of the maximum response to histamine. The antagonist pA2 is calculated using the following standard equation: pA2=log(DR-1)−log [B] where DR=dose ratio, defined as EC50antagonist-treated/EC50control and [B]=concentration of antagonist.

Experiment [2] concerns the target T1, human H1 receptor. Nature of the experiment: Histamine H1 functional antagonist assay (FLIPR): determination of functional pKi values. The note with it: CHO cells expressing human H1 receptor, histamine at EC80, read-out: average pKa (pKb) at H1 (converted). As for the experimental part:
(§1) The human H1 receptor is cloned using known procedures described in the literature [Biochem. Biophys. Res. Commun., 201(2):894 (1994)]. Chinese hamster ovary (CHO) cells stably expressing the human H1 receptor are generated according to known procedures described in the literature [Br. J. Pharmacol., 117(6):1071 (1996)].
The histamine H1 cell line is seeded into non-coated black-walled clear bottom 384-well tissue culture plates in alpha minimum essential medium (Gibco/Invitrogen, cat no. 22561-021), supplemented with 10% dialysed foetal calf serum (Gibco/Invitrogen cat no. 12480-021) and 2 mM L-glutamine (Gibco/Invitrogen cat no 25030-024) and is maintained overnight at 5% CO2, 37° C.
Excess medium is removed from each well to leave 10 μl. 30 μl loading dye (250 μM Brilliant Black, 2 μM Fluo-4 diluted in Tyrodes buffer+probenecid (145 mM NaCl, 2.5 mM KCl, 10 mM HEPES, 10 mM D-glucose, 1.2 mM MgCl2, 1.5 mM CaCl2, 2.5 mM probenecid, pH adjusted to 7.40 with NaOH 1.0 M)) is added to each well and the plates are incubated for 60 min at 5% CO2, 37° C.
10 μl of test compound, diluted to the required concentration in Tyrodes buffer+probenecid (or 10 μl Tyrodes buffer+probenecid as a control) is added to each well and the plate is incubated for 30 min at 37° C., 5% CO2. The plates are then placed into a FLIPR™ (Molecular Devices, UK) to monitor cell fluorescence (λex=488 nm, λEM=540 nm) in the manner described in Sullivan et al., (In: Lambert DG (ed.), Calcium Signaling Protocols, New Jersey: Humana Press, 1999, 125-136) before and after the addition of 10 μl histamine at a concentration that results in the final assay concentration of histamine being EC80.
Functional antagonism is indicated by a suppression of histamine induced increase in fluorescence, as measured by the FLIPR™ system (Molecular Devices). By means of concentration effect curves, functional affinities are determined using standard pharmacological mathematical analysis.

Experiment [3] concerns the target T1, human H1 receptor. Nature of the experiment: Histamine H1 functional antagonist assay (FLIPR): antagonist duration after washout. The note with it: at one or more time points, typically 30-270 min. As for the experimental part: as §1
To determine the antagonist duration, cells are cultured overnight in non-coated black-walled clear bottom 96-well tissue culture plates, are washed with PBS and are incubated with a concentration of antagonist chosen to give an approximate DR in the range 30-300. Following the 30 min antagonist incubation period, the cells are washed two or three times with 200 μl of PBS and then 100 μl Tyrodes buffer is added to each well to initiate antagonist dissociation. Following incubation for predetermined times, typically 30-270 min at 37° C., the cells are then washed again with 200 μl PBS and are incubated with 100 μl Tyrodes buffer containing Brilliant Black, probenecid and Fluo-4 for 45 min at 37° C., as described above. After this period, the cells are challenged with histamine in the FLIPR™ as described above. The dose ratio at each time point is used to determine the fractional H1 receptor occupancy by the following equation: fractional receptor occupancy=(DR-1)/DR. The decrease in receptor occupancy over time approximates to a straight line and is analysed by linear regression. The slope of this straight line fit is used as an index of the dissociation rate of the antagonist. The dose ratios for antagonist treated cells and for antagonist treated and washed cells at each time point are used to calculate a relative dose ratio (rel DR) which is also used as an index of antagonist duration. Antagonists with long duration of action produce rel DR values close to 1, and antagonists with short duration of action produce rel DR values that approaches the dose ratio value obtained for antagonist treatment alone.

Molecules are shown by their SMILES.

T1 sequence (P35367 whole entry): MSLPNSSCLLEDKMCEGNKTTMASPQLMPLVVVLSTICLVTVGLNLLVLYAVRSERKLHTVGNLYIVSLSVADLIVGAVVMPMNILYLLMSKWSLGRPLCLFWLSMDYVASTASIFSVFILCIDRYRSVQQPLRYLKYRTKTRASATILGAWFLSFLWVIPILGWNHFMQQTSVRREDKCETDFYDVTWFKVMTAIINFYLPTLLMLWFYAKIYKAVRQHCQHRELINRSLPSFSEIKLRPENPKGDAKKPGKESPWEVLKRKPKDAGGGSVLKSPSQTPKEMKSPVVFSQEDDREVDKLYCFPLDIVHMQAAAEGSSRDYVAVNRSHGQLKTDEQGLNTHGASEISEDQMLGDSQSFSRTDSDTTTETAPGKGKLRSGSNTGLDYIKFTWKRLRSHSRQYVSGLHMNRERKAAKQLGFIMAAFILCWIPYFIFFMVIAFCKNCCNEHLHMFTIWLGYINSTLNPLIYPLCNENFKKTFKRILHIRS

In the case of `CCS(=O)(=O)CCN1CCC[C@@H]1Cn1nc(Cc2ccc(Cl)cc2)c2ccccc2c1=O` [Example 1, 4-[(4-Chlorophenyl)methyl]-2-({(2R)-1-[2-(ethylsulfonyl)ethyl]-2-pyrrolidinyl}methyl)-1(2H)-phthalazinone], on human H1 receptor [1], the Kb is under 1 nM.

`O=c1c2ccccc2c(Cc2ccc(Cl)cc2)nn1C[C@H]1CCCN1CCS(=O)(=O)N1CCCCC1` [Example 2, 4-[(4-Chlorophenyl)methyl]-2-({(2R)-1-[2-(1-piperidinylsulfonyl)ethyl]-2-pyrrolidinyl}methyl)-1(2H)-phthalazinone]: at human H1 receptor [2], the Kb was under 100 nM.

As to `CCS(=O)(=O)CCCN1CCC[C@@H]1Cn1nc(Cc2ccc(Cl)cc2)c2ccccc2c1=O` [Example 3, 4-[(4-Chlorophenyl)methyl]-2-({(2R)-1-[3-(ethylsulfonyl)propyl]-2-pyrrolidinyl}methyl)-1(2H)-phthalazinone], at human H1 receptor [1], the Kb is under 1 nM. Further, the “duration of action compared with azelastine” value on human H1 receptor [3] is “longer duration of action than azelastine”.

For the compound `CCS(=O)(=O)C(C)CCN1CCC[C@@H]1Cn1nc(Cc2ccc(Cl)cc2)c2ccccc2c1=O` (stereo partly drawn) [Example 4, 4-[(4-Chlorophenyl)methyl]-2-({(2R)-1-[3-(ethylsulfonyl)butyl]-2-pyrrolidinyl}methyl)-1(2H)-phthalazinone], the Kb at human H1 receptor [1] is under 1 nM.

Take `CCS(=O)(=O)[C@@H](C)CCN1CCC[C@@H]1Cn1nc(Cc2ccc(Cl)cc2)c2ccccc2c1=O` [Example 5A, 4-[(4-Chlorophenyl)methyl]-2-({(2R)-1-[(3S)-3-(ethylsulfonyl)butyl]-2-pyrrolidinyl}methyl)-(2H)-phthalazinone]: the Kb on human H1 receptor [1] was under 10 nM.

On to `CCS(=O)(=O)[C@H](C)CCN1CCC[C@@H]1Cn1nc(Cc2ccc(Cl)cc2)c2ccccc2c1=O` [Example 5B, 4-[(4-Chlorophenyl)methyl]-2-({(2R)-1-[(3R)-3-(ethylsulfonyl)butyl]-2-pyrrolidinyl}methyl)-(2H)-phthalazinone], for which the Kb on human H1 receptor [1] is under 10 nM.

For the compound `CCS(=O)(=O)NCCN1CCC[C@@H]1Cn1nc(Cc2ccc(Cl)cc2)c2ccccc2c1=O` [Example 6, N-[2-((2R)-2-{[4-[(4-Chlorophenyl)methyl]-1-oxo-2(1H)-phthalazinyl]methyl}-1-pyrrolidinyl)ethyl]ethanesulfonamide], on human H1 receptor [1], the Kb is under 1 nM. Also, the “duration of action compared with azelastine” value at human H1 receptor [3] was “longer duration of action than azelastine”.

Consider `CCCS(=O)(=O)NCCN1CCC[C@@H]1Cn1nc(Cc2ccc(Cl)cc2)c2ccccc2c1=O` [Example 7, N-[2-((2R)-2-{[4-[(4-Chlorophenyl)methyl]-1-oxo-2(1H)-phthalazinyl]methyl}-1-pyrrolidinyl)ethyl]-1-propanesulfonamide], for which the Kb is under 100 nM on human H1 receptor [2] and under 1 nM at human H1 receptor [1]. Besides, at human H1 receptor [3], the “duration of action compared with azelastine” value is “longer duration of action than azelastine”.

As for `CC(C)S(=O)(=O)NCCN1CCC[C@@H]1Cn1nc(Cc2ccc(Cl)cc2)c2ccccc2c1=O` [Example 8, N-[2-((2R)-2-{[4-[(4-Chlorophenyl)methyl]-1-oxo-2(1H)-phthalazinyl]methyl}-1-pyrrolidinyl)ethyl]-2-propanesulfonamide], the Kb at human H1 receptor [2] was under 100 nM; at human H1 receptor [1] it was under 1 nM. The “duration of action compared with azelastine” value at human H1 receptor [3] is recorded as “longer duration of action than azelastine”.

`COCCCNS(=O)(=O)CCN1CCC[C@@H]1Cn1nc(Cc2ccc(Cl)cc2)c2ccccc2c1=O` [Example 10, 2-((2R)-2-{[4-[(4-Chlorophenyl)methyl]-1-oxo-2(1H)-phthalazinyl]methyl}-1-pyrrolidinyl)-N-[3-(methyloxy)propyl]ethanesulfonamide]: the Kb at human H1 receptor [2] is under 100 nM; on human H1 receptor [1], under 10 nM. The “duration of action compared with azelastine” value at human H1 receptor [3] is “longer duration of action than azelastine”.

Regarding `CCCNC(=O)NCCN1CCC[C@@H]1Cn1nc(Cc2ccc(Cl)cc2)c2ccccc2c1=O` [Example 11, N-[2-((2R)-2-{[4-[(4-Chlorophenyl)methyl]-1-oxo-2(1H)-phthalazinyl]methyl}-1-pyrrolidinyl)ethyl]-M-propylurea], the Kb on human H1 receptor [1] was under 1 nM. Also, the “duration of action compared with azelastine” value on human H1 receptor [3] is listed as “longer duration of action than azelastine”.

For `CCS(=O)(=O)CCCN1CCC[C@@H]1Cn1nc(Cc2ccc(Cl)cc2)c2cnccc2c1=O` [Example 12, 4-[(4-Chlorophenyl)methyl]-2-({(2R)-1-[3-(ethylsulfonyl)propyl]-2-pyrrolidinyl}methyl)pyrido[3,4-d]pyridazin-1(2H)-one], the Kb at human H1 receptor [1] was under 1 nM. The “duration of action compared with azelastine” value on human H1 receptor [3] is “longer duration of action than azelastine”.

With `CCS(=O)(=O)CCN1CCC[C@@H]1Cn1nc(Cc2ccc(Cl)cc2)c2cnccc2c1=O` [Example 13, 4-[(4-Chlorophenyl)methyl]-2-({(2R)-1-[2-(ethylsulfonyl)ethyl]-2-pyrrolidinyl}methyl)pyrido[3,4-d]pyridazin-1(2H)-one], the Kb on human H1 receptor [1] was under 10 nM.

In the case of `CCCNC(=O)NCCN1CCC[C@@H]1Cn1nc(Cc2ccc(Cl)cc2)c2cnccc2c1=O` [Example 14, N-[2-((2R)-2-{[4-[(4-chlorophenyl)methyl]-1-oxopyrido[3,4-d]pyridazin-2(1H)-yl]methyl}-1-pyrrolidinyl)ethyl]-M-propylurea], the Kb at human H1 receptor [1] was under 1 nM.
